Format in all cases: functional
Assay [1] deals with Streptococcus pyogenes. The assay is described as follows: Antimicrobial activity against ciprofloxacin-nonsusceptible Streptococcus pyogenes isolates assessed as susceptible isolates by agar dilution method.
For assay [2], the system named is Streptococcus pyogenes. The assay is described as follows: Antimicrobial activity against ciprofloxacin-nonsusceptible Streptococcus pyogenes isolates assessed as intermediate resistant isolates by agar dilution method.
Assay [3] concerns Streptococcus pyogenes. Put plainly: Antimicrobial activity against ciprofloxacin-nonsusceptible Streptococcus pyogenes isolates assessed as resistant isolates by agar dilution method.
The test system of assay [4] is Streptococcus pyogenes. Put plainly: Antimicrobial activity against ciprofloxacin-nonsusceptible Streptococcus pyogenes isolates by agar dilution method.
The test system of assay [5] is Streptococcus pyogenes. The assay is described as follows: Antimicrobial activity against ciprofloxacin-nonsusceptible, AD PFGE pattern, […] sequence type, ParC S79A mutant isolated from oropharyngeal colonization.
Assay [6] deals with Streptococcus pyogenes. The assay is described as follows: Antimicrobial activity against ciprofloxacin-nonsusceptible, CJ PFGE pattern, emm89 type Streptococcus pyogenes with ST101 sequence type isolated from tonsillitis/pharyngitis.
Assay [7] concerns Streptococcus pyogenes. Put plainly: Antimicrobial activity against ciprofloxacin-nonsusceptible, AD PFGE pattern, […] sequence type, ParC S79A mutant isolated from oropharyngeal colonization and onsillitis/pharyngitis.
Assay [8] concerns Streptococcus pyogenes. Put plainly: Antimicrobial activity against ciprofloxacin-nonsusceptible, AM PFGE pattern, emm6 type Streptococcus pyogenes with ST382 sequence type, ParC S79A mutant isolated from oropharyngeal colonization.
For assay [9], the system named is Streptococcus pyogenes. Put plainly: Antimicrobial activity against ciprofloxacin-nonsusceptible, DX PFGE pattern, emm6 type Streptococcus pyogenes with ST382 sequence type, ParC S79A mutant isolated from oropharyngeal colonization.
Assay [10] deals with Streptococcus pyogenes. The assay is described as follows: Antimicrobial activity against ciprofloxacin-nonsusceptible, K PFGE pattern, emm5 type Streptococcus pyogenes with ST99 sequence type, ParC D83G isolated from oropharyngeal colonization.
The test system of assay [11] is Streptococcus pyogenes. Put plainly: Antimicrobial activity against ciprofloxacin-nonsusceptible, DY PFGE pattern, emm6 type Streptococcus pyogenes with ST382 sequence type, ParC S79A mutant isolated from oropharyngeal colonization.
Assay [12] has as its system Streptococcus pyogenes. The assay is described as follows: Antimicrobial activity against ciprofloxacin-nonsusceptible, AD PFGE pattern, emm6 type Streptococcus pyogenes with ST382 sequence type, ParC S79A mutant isolated from oropharyngeal colonization, tonsillitis/pharyngitis and skin/soft tissue infection.
The test system of assay [13] is Streptococcus pyogenes. The assay is described as follows: Antimicrobial activity against ciprofloxacin-nonsusceptible, BT PFGE pattern, emm28 type Streptococcus pyogenes with ST52 sequence type, ParC D83G mutant isolated from skin/soft tissue infection.

≈ marks a conversion by molar mass, not a printed value.

Regarding `CC1(C)S[C@@H]2[C@H](NC(=O)Cc3ccccc3)C(=O)N2[C@H]1C(=O)O` [PENICILLIN G], the Activity with Streptococcus pyogenes [1] is recorded as 100%. For the same compound, the Activity in the assay with Streptococcus pyogenes [2] is on record as 0%. The Activity with Streptococcus pyogenes [3] is 0%. In addition, in the assay with Streptococcus pyogenes [4], the MIC is no more than 0.03 µg/mL, the MIC50 is no more than 0.03 µg/mL and the MIC90 is no more than 0.03 µg/mL.

Turning to `CC[C@H]1OC(=O)[C@H](C)[C@@H](O[C@H]2C[C@@](C)(OC)[C@@H](O)[C@H](C)O2)[C@H](C)[C@@H](O[C@@H]2O[C@H](C)C[C@H](N(C)C)[C@H]2O)[C@](C)(O)C[C@@H](C)C(=O)[C@H](C)[C@@H](O)[C@]1(C)O` [ERYTHROMYCIN], the Activity in the assay on Streptococcus pyogenes [1] was 98.5%. Moreover, in the assay on Streptococcus pyogenes [2], the Activity was found to be 0%. Further, the Activity with Streptococcus pyogenes [3] is 1.5%. In addition, in the assay on Streptococcus pyogenes [4], the MIC was no more than 0.25 µg/mL, the MIC50 was no more than 0.25 µg/mL and the MIC90 was no more than 0.25 µg/mL.

For `COc1c(N2C[C@@H]3CCCN[C@@H]3C2)c(F)cc2c(=O)c(C(=O)O)cn(C3CC3)c12` [MOXIFLOXACIN], the MIC was found to be 1 µg/mL (≈ 2.49 µM) in the assay on Streptococcus pyogenes [5]; 0.5 µg/mL (≈ 1.25 µM) in the assay on Streptococcus pyogenes [6]; 0.5 µg/mL (≈ 1.25 µM) with Streptococcus pyogenes [7]; 0.5 µg/mL (≈ 1.25 µM) in the assay with Streptococcus pyogenes [8]; 0.5 µg/mL (≈ 1.25 µM) in the assay on Streptococcus pyogenes [9]; 0.5 µg/mL (≈ 1.25 µM) in the assay on Streptococcus pyogenes [10]. Further, the minimal inhibitory concentration (MIC) was no more than 0.25 µg/mL in the assay on Streptococcus pyogenes [4] and 0.5 µg/mL (≈ 1.25 µM) in the assay with Streptococcus pyogenes [11]. This compound also had an MIC50 in the assay with Streptococcus pyogenes [4] of 0.5 µg/mL (≈ 1.25 µM). In the assay on Streptococcus pyogenes [4], this compound registered an MIC90 of 0.5 µg/mL (≈ 1.25 µM).

Consider `CN(C)c1cc(NC(=O)CNC(C)(C)C)c(O)c2c1C[C@H]1C[C@H]3[C@H](N(C)C)C(O)=C(C(N)=O)C(=O)[C@@]3(O)C(O)=C1C2=O` [TIGECYCLINE], for which the MIC in the assay on Streptococcus pyogenes [4] amounted to 0.025 µg/mL (≈ 0.0427 µM).

For `CN[C@H](CC(C)C)C(=O)N[C@H]1C(=O)N[C@@H](CC(N)=O)C(=O)N[C@H]2C(=O)N[C@H]3C(=O)N[C@H](C(=O)N[C@H](C(=O)O)c4cc(O)cc(O)c4-c4cc3ccc4O)[C@H](O)c3ccc(c(Cl)c3)Oc3cc2cc(c3O[C@@H]2O[C@H](CO)[C@@H](O)[C@H](O)[C@H]2O[C@H]2C[C@](C)(N)[C@H](O)[C@H](C)O2)Oc2ccc(cc2Cl)[C@H]1O` [VANCOMYCIN], the Activity in the assay on Streptococcus pyogenes [1] is 100%. The Activity in the assay on Streptococcus pyogenes [2] turned out to be 0%. The Activity in the assay with Streptococcus pyogenes [3] came out at 0%. For the same compound, in the assay with Streptococcus pyogenes [4], the MIC was no more than 0.25 µg/mL, the MIC50 worked out at 0.5 µg/mL (≈ 0.345 µM) and the MIC90 is 0.5 µg/mL (≈ 0.345 µM).

`CCC[C@@H]1C[C@@H](C(=O)N[C@@H]([C@H]2O[C@H](SC)[C@H](O)[C@@H](O)[C@H]2O)[C@H](C)Cl)N(C)C1` [CLINDAMYCIN]: the Activity in the assay on Streptococcus pyogenes [1] amounted to 98.5%. Further, the Activity with Streptococcus pyogenes [2] came out at 0%. For the same compound, the Activity with Streptococcus pyogenes [3] was 1.5%. In the assay on Streptococcus pyogenes [4], this compound registered an MIC of no more than 0.25 µg/mL, an MIC50 of no more than 0.25 µg/mL and an MIC90 of no more than 0.25 µg/mL.

`CN(C)[C@@H]1C(O)=C(C(N)=O)C(=O)[C@@]2(O)C(O)=C3C(=O)c4c(O)cccc4[C@@](C)(O)[C@H]3C[C@@H]12` [TETRACYCLINE]: the Activity with Streptococcus pyogenes [1] was found to be 98.5%. Also, the Activity in the assay on Streptococcus pyogenes [2] is reported as 0%. Further, the Activity in the assay with Streptococcus pyogenes [3] came out at 1.5%. In the assay on Streptococcus pyogenes [4], this compound came in with an MIC of no more than 2 µg/mL, an MIC50 of no more than 2 µg/mL and an MIC90 of no more than 2 µg/mL.

Consider `CO/N=C(\C(=O)N[C@@H]1C(=O)N2C(C(=O)O)=C(COC(C)=O)CS[C@H]12)c1csc(N)n1` [CEFOTAXIME], for which the Activity in the assay with Streptococcus pyogenes [1] worked out at 100%. Besides, the Activity with Streptococcus pyogenes [2] was found to be 0%. In addition, the Activity with Streptococcus pyogenes [3] amounted to 0%. In the assay on Streptococcus pyogenes [4], this compound registered an MIC of no more than 0.06 µg/mL, an MIC50 of no more than 0.06 µg/mL and an MIC90 of no more than 0.06 µg/mL.

As for `C[C@H]1COc2c(N3CCN(C)CC3)c(F)cc3c(=O)c(C(=O)O)cn1c23.C[C@H]1COc2c(N3CCN(C)CC3)c(F)cc3c(=O)c(C(=O)O)cn1c23.O` [LEVOFLOXACIN], the MIC with Streptococcus pyogenes [5] was determined as 4 µg/mL; with Streptococcus pyogenes [6] it was 2 µg/mL; against Streptococcus pyogenes [7] it was 2 µg/mL; in the assay on Streptococcus pyogenes [12], 2 µg/mL; against Streptococcus pyogenes [8] it was 2 µg/mL; in the assay with Streptococcus pyogenes [13] it was 2 µg/mL. For the same compound, the MIC in the assay with Streptococcus pyogenes [9], against Streptococcus pyogenes [10], in the assay on Streptococcus pyogenes [4] and in the assay with Streptococcus pyogenes [11] was 2 µg/mL throughout. Besides, the Activity with Streptococcus pyogenes [1] is reported as 92.4%; with Streptococcus pyogenes [2], 7.6%; in the assay on Streptococcus pyogenes [3] it was 0%. Moreover, the MIC50 against Streptococcus pyogenes [4] came to 2 µg/mL. This compound showed an MIC90 in the assay on Streptococcus pyogenes [4] of 2 µg/mL.

Consider `O=C(O)c1cn(C2CC2)c2cc(N3CCNCC3)c(F)cc2c1=O` [CIPROFLOXACIN], for which the MIC in the assay with Streptococcus pyogenes [5] was found to be 4 µg/mL (≈ 12.1 µM); with Streptococcus pyogenes [6] it was 2 µg/mL (≈ 6.04 µM); with Streptococcus pyogenes [7], 2 µg/mL (≈ 6.04 µM); against Streptococcus pyogenes [12], 2 µg/mL (≈ 6.04 µM); with Streptococcus pyogenes [8], 2 µg/mL (≈ 6.04 µM); with Streptococcus pyogenes [13], 2 µg/mL (≈ 6.04 µM). Moreover, the MIC against Streptococcus pyogenes [9] worked out at 2 µg/mL (≈ 6.04 µM); with Streptococcus pyogenes [10], 2 µg/mL (≈ 6.04 µM); in the assay on Streptococcus pyogenes [4], 2 µg/mL (≈ 6.04 µM); in the assay on Streptococcus pyogenes [11], 4 µg/mL (≈ 12.1 µM).

In the case of `CC1(C)S[C@@H]2[C@H](NC(=O)[C@H](N)c3ccccc3)C(=O)N2[C@H]1C(=O)O` [AMPICILLIN], the Activity stood at 100% in the assay on Streptococcus pyogenes [1], 0% in the assay with Streptococcus pyogenes [2] and 0% in the assay with Streptococcus pyogenes [3]. Besides, the MIC in the assay with Streptococcus pyogenes [4] is no more than 0.25 µg/mL. The compound also yielded an MIC50 in the assay on Streptococcus pyogenes [4] of no more than 0.25 µg/mL. Moreover, the MIC90 against Streptococcus pyogenes [4] is no more than 0.25 µg/mL.

(Values after ChEMBL document CHEMBL1275587, “Emergence of ciprofloxacin-nonsusceptible Streptococcus pyogenes isolates from healthy children and pediatric patients in Portugal” (2010).)
